Experimental data taken from BindingDB's records for doi:10.1021/jm020018f (Sphinx Laboratories, 2002).

target: cAMP-dependent protein kinase catalytic subunit alpha (Bos taurus, UniProt P00517); assay: PKA assay; settings: not given
Procedure: The activity of PKA, activated by cAMP, is measured by its ability to transfer phosphate from [gamma-32P]ATP to histone.

Compared with `O=C(N[C@@H]1CNCCC[C@H]1OC(=O)c1cc(O)c(Cc2c(O)cccc2C(=O)O)c(O)c1)c1ccc(O)cc1` [2-{[2,6-dihydroxy-4-({[(3R,4R)-3-[(4-hydroxybenzene)amido]azepan-4-yl]oxy}carbonyl)phenyl]methyl}-3-hydroxybenzoic acid], `COc1cccc(O)c1C(=O)c1c(O)cc(C(=O)O[C@@H]2CCCNC[C@H]2NC(=O)c2ccc(O)cc2)cc1O` [(3R,4R)-3-[(4-hydroxybenzene)amido]azepan-4-yl 3,5-dihydroxy-4-[(2-hydroxy-6-methoxyphenyl)carbonyl]benzoate] is 1.9-fold lower in IC50: 470 nM for the first, 250 nM for the second. The second is the more potent here.

Compared with `O=C(N[C@@H]1CNCCC[C@H]1OC(=O)c1cc(O)c(C(=O)c2ccc3ccccc3c2O)c(O)c1)c1ccc(O)cc1` [4-trans-[4-(1-Hydroxy-2-naphthoyl)-3,5-dihydroxybenzoyloxy]-3-(4-hydroxybenzamido)azepane], `COc1cccc(OC)c1C(=O)c1c(O)cc(C(=O)O[C@@H]2CCCNC[C@H]2NC(=O)c2ccc(O)cc2)cc1O` [(3R,4R)-3-[(4-hydroxybenzene)amido]azepan-4-yl 4-[(2,6-dimethoxyphenyl)carbonyl]-3,5-dihydroxybenzoate] is lower in IC50: over 150000 nM for the first, 360 nM for the second. The second is the more potent here.

Compared with `O=C(N[C@@H]1CNCCC[C@H]1OC(=O)c1cc(O)c2c(=O)c3c(C(=O)O)cccc3oc2c1)c1ccc(O)cc1` [8-hydroxy-6-({[(3R,4R)-3-[(4-hydroxybenzene)amido]azepan-4-yl]oxy}carbonyl)-9-oxo-9H-xanthene-1-carboxylic acid], `O=C(N[C@@H]1CNCCC[C@H]1OC(=O)c1cc(O)c(C2OC(=O)c3cccc(O)c32)c(O)c1)c1ccc(O)cc1` (stereo partly drawn) [trans-4-[3,5-Dihydroxy-4-(4-hydroxy-3-phthlido)benzoyloxy]-3-(4-hydroxybenzamido)azepine] is lower in IC50: over 15000 nM for the first, 300 nM for the second. The second is the more potent here.

`COc1cc(C(=O)O[C@@H]2CCCNC[C@H]2NC(=O)c2ccc(O)cc2)cc(OC)c1C(=O)c1c(O)cccc1O` [(3R,4R)-3-[(4-hydroxybenzene)amido]azepan-4-yl 4-[(2,6-dihydroxyphenyl)carbonyl]-3,5-dimethoxybenzoate] gave an IC50 of 4300 nM.

same assay, conditions: pH 7.5; 30 °C

In order of rising IC50:
1. O=C(N[C@@H]1CNCCC[C@H]1OC(=O)c1cc(O)c(C(=O)c2ccccc2O)c(O)c1)c1ccc(O)cc1 [4-trans-[4-(2-Hydroxybenzoyl)-3,5-dihydroxybenzoyloxy]-3-(4-hydroxybenzamido)azepane]  440 nM
2. O=C(N[C@@H]1CNCCC[C@H]1OC(=O)c1cc(O)c(C(=O)c2c(O)cccc2O)c(O)c1)c1ccc(O)cc1 [(3R,4R)-3-[(4-hydroxybenzene)amido]azepan-4-yl 4-[(2,6-dihydroxyphenyl)carbonyl]-3,5-dihydroxybenzoate]  440 nM
3. O=C(N[C@@H]1CNCCC[C@H]1OC(=O)c1cc(O)c(C(=O)c2ccccc2C(=O)O)c(O)c1)c1ccc(O)cc1  1000 nM
4. O=C(N[C@@H]1CNCCC[C@H]1OC(=O)c1cc(O)c(C(=O)[C@@H]2CCCC[C@H]2C(=O)O)c(O)c1)c1ccc(O)cc1 [(1R,2R)-2-{[2,6-dihydroxy-4-({[(3R,4R)-3-[(4-hydroxybenzene)amido]azepan-4-yl]oxy}carbonyl)phenyl]carbonyl}cyclohexane-1-carboxylic acid]  6700 nM
5. O=C(N[C@@H]1CNCCC[C@H]1OC(=O)c1cc(O)c(C(=O)[C@@H]2CCCC[C@@H]2C(=O)O)c(O)c1)c1ccc(O)cc1 [4-trans-[4-(cis-2-Carboxycyclohexanoyl)-3,5-dihydroxybenzoyloxy]-3-(4-hydroxybenzamido)azepane]  7900 nM
